Laboratory results taken from US9302999B2, “Substituted triazoles as herbicides” (E. I. DU PONT DE NEMOURS AND COMPANY, priority 2012, dated 2016).

Key:
Type in all cases: in vivo
[1] = system: barnyardgrass (Echinochloa crus-galli); experiment: Test A pre-/postemergence: barnyardgrass
Description: (§1) Seeds of barnyardgrass (Echinochloa crus-galli), crabgrass, large (large crabgrass, Digitaria sanguinalis), foxtail, giant (giant foxtail, Setaria faberii), morningglory (Ipomoea spp.), pigweed (Amaranthus retroflexus), velvetleaf (Abutilon theophrasti), wheat (Triticum aestivum), and corn (Zea mays) were planted into a blend of loam soil and sand and treated preemergence with a directed soil spray using test chemicals formulated in a non-phytotoxic solvent mixture which included a surfactant. At the same time these species were also treated with postemergence applications of test chemicals formulated in the same manner.
(§2) Plants ranged in height from two to ten cm and were in the one- to two-leaf stage for the postemergence treatment. Treated plants and untreated controls were maintained in a greenhouse for approximately ten days, after which time all treated plants were compared to untreated controls and visually evaluated for injury. Plant response ratings, summarized in Table A, are based on a 0 to 100 scale where 0 is no effect and 100 is complete control. A dash (-) response means no test result.

[2] = system: crabgrass, large (large crabgrass, Digitaria sanguinalis); experiment: Test A pre-/postemergence: crabgrass, large
Description: as §1, §2

[3] = system: foxtail, giant (giant foxtail, Setaria faberii); experiment: Test A pre-/postemergence: foxtail, giant
Description: as §1, §2

[4] = system: morningglory (Ipomoea spp.); experiment: Test A pre-/postemergence: morningglory
Description: as §1, §2

[5] = system: pigweed (Amaranthus retroflexus); experiment: Test A pre-/postemergence: pigweed
Description: as §1, §2

[6] = system: velvetleaf (Abutilon theophrasti); experiment: Test A pre-/postemergence: velvetleaf
Description: as §1, §2

[7] = system: wheat (Triticum aestivum); experiment: Test A pre-/postemergence: wheat
Description: as §1, §2

corn (Zea mays) = experiment: Test A pre-/postemergence: corn
Description: as §1, §2

[8] = Postemergence, 125 g ai/ha, 0 to 100 scale, 0 is no effect, 100 is complete control
[9] = Postemergence, 500 g ai/ha, visual rating on 0 to 100 scale (0 no effect, 100 complete control), approximately ten days
[10] = Preemergence, 125 g ai/ha, 0 to 100 scale (0 no effect, 100 complete control)
[11] = Preemergence, 500 g ai/ha, 0 to 100 scale, 0 is no effect, 100 is complete control
[12] = Postemergence, 1000 g ai/ha, visual rating on 0 to 100 scale (0 no effect, 100 complete control), approximately ten days
[13] = Preemergence, 1000 g ai/ha, 0 to 100 scale, 0 is no effect, 100 is complete control
[14] = Preemergence, 125 g ai/ha, 0 to 100 scale where 0 is no effect and 100 is complete control
[15] = Preemergence, 500 g ai/ha, 0 to 100 scale (0 no effect, 100 complete control)

Compound | Barnyardgrass plant response rating [1, 8] | Barnyardgrass plant response rating [1, 9] | Crabgrass, Large plant response rating [2, 8] | Crabgrass, Large plant response rating [2, 9] | Foxtail, Giant plant response rating [3, 8] | Foxtail, Giant plant response rating [3, 9] | Morningglory plant response rating [4, 8] | Morningglory plant response rating [4, 9] | Pigweed plant response rating [5, 8] | Pigweed plant response rating [5, 9] | Velvetleaf plant response rating [6, 8] | Velvetleaf plant response rating [6, 9] | Wheat plant response rating [7, 8] | Wheat plant response rating [7, 9] | Corn plant response rating (corn (Zea mays); [8]) | Corn plant response rating (corn (Zea mays); [9]) | Plant response rating, Foxtail, Giant [3, 14] | Plant response rating, Morningglory [4, 14] | Plant response rating, Pigweed [5, 14] | Plant response rating, Velvetleaf [6, 14] | further results
Cc1nn(-c2ccc(C(F)(F)F)cc2)nc1Nc1cccc(C(F)(F)F)c1 [Compound 69] | 10 | 10 | 10 | 20 | 10 | 10 | 20 | 30 | 30 | 90 | 10 | 20 | 0 | 10 | 10 | 20 | – | – | – | – | Plant response rating, Barnyardgrass [1, 10]: 0; Plant response rating, Barnyardgrass [1, 11]: 0; Plant response rating, Crabgrass, Large [2, 10]: 0; Plant response rating, Crabgrass, Large [2, 11]: 10; Plant response rating, Foxtail, Giant [3, 10]: 0; Plant response rating, Foxtail, Giant [3, 11]: 0; Plant response rating, Morningglory [4, 10]: 0; Plant response rating, Morningglory [4, 11]: 0; Plant response rating, Pigweed [5, 10]: 0; Plant response rating, Pigweed [5, 11]: 10; Plant response rating, Velvetleaf [6, 10]: 0; Plant response rating, Velvetleaf [6, 11]: 0; Plant response rating, Wheat [7, 10]: 0; Plant response rating, Wheat [7, 11]: 0; Plant response rating, Corn (corn (Zea mays); [10]): 0; Plant response rating, Corn (corn (Zea mays); [11]): 0
Cc1nn(-c2ccc(F)cc2)nc1Cn1nc(C(F)(F)F)cc1C [Compound 97] | – | – | – | – | – | – | – | – | – | – | – | – | – | – | – | – | – | – | – | – | Barnyardgrass plant response rating [1, 12]: 30; Barnyardgrass plant response rating [1, 13]: 30; Crabgrass, Large plant response rating [2, 12]: 60; Crabgrass, Large plant response rating [2, 13]: 40; Foxtail, Giant plant response rating [3, 12]: 20; Foxtail, Giant plant response rating [3, 13]: 20; Morningglory plant response rating [4, 12]: 40; Morningglory plant response rating [4, 13]: 0; Pigweed plant response rating [5, 12]: 60; Pigweed plant response rating [5, 13]: 0; Velvetleaf plant response rating [6, 12]: 50; Velvetleaf plant response rating [6, 13]: 0; Wheat plant response rating [7, 12]: 0; Wheat plant response rating [7, 13]: 0; Corn plant response rating (corn (Zea mays); [12]): 10; Corn plant response rating (corn (Zea mays); [13]): 0
Cc1nn(-c2ccc(F)cc2)nc1Oc1nccc(C(F)(F)F)n1 [Compound 102] | 0 | 0 | 0 | 10 | 0 | 0 | 0 | 0 | 10 | 70 | 0 | 0 | 0 | 0 | 0 | 0 | 0 | 0 | 0 | 0 | Plant response rating, Barnyardgrass [1, 10]: 0; Plant response rating, Barnyardgrass [1, 11]: 0; Plant response rating, Crabgrass, Large [2, 10]: 0; Plant response rating, Crabgrass, Large [2, 11]: 0; Plant response rating, Foxtail, Giant [3, 11]: 0; Plant response rating, Morningglory [4, 11]: 0; Plant response rating, Pigweed [5, 11]: 0; Plant response rating, Velvetleaf [6, 11]: 0; Plant response rating, Wheat [7, 14]: 0; Plant response rating, Wheat [7, 11]: 0; Plant response rating, Corn (corn (Zea mays); [10]): 0; Plant response rating, Corn (corn (Zea mays); [11]): 0
Cc1nn(-c2ccc(C(F)(F)F)cc2)nc1Oc1cc(C(F)(F)F)nn1C [Compound 104] | 20 | 30 | 50 | 70 | 20 | 50 | 60 | 90 | 70 | 100 | 30 | 60 | 0 | 0 | 10 | 20 | 60 | 0 | 30 | 0 | Plant response rating, Barnyardgrass [1, 10]: 10; Plant response rating, Barnyardgrass [1, 11]: 20; Plant response rating, Crabgrass, Large [2, 10]: 60; Plant response rating, Crabgrass, Large [2, 11]: 90; Plant response rating, Foxtail, Giant [3, 11]: 90; Plant response rating, Morningglory [4, 11]: 0; Plant response rating, Pigweed [5, 11]: 90; Plant response rating, Velvetleaf [6, 11]: 30; Plant response rating, Wheat [7, 14]: 0; Plant response rating, Wheat [7, 11]: 0; Plant response rating, Corn (corn (Zea mays); [10]): 0; Plant response rating, Corn (corn (Zea mays); [11]): 0
CCc1nn(-c2ccc(C(F)(F)F)cc2)nc1Cn1cnc(C(F)(F)F)c1Cl [Compound 121] | 0 | 0 | 0 | 10 | 0 | 0 | 0 | 0 | 0 | 20 | 0 | 10 | 0 | 0 | 0 | 10 | 0 | 0 | 0 | 0 | Plant response rating, Barnyardgrass [1, 14]: 0; Plant response rating, Barnyardgrass [1, 15]: 0; Plant response rating, Crabgrass, Large [2, 14]: 0; Plant response rating, Crabgrass, Large [2, 15]: 10; Plant response rating, Foxtail, Giant [3, 15]: 0; Plant response rating, Morningglory [4, 15]: 0; Plant response rating, Pigweed [5, 15]: 0; Plant response rating, Velvetleaf [6, 15]: 0; Plant response rating, Wheat [7, 14]: 0; Plant response rating, Wheat [7, 15]: 0; Plant response rating, Corn (corn (Zea mays); [14]): 0; Plant response rating, Corn (corn (Zea mays); [15]): 0
Cc1nn(-c2ccc(F)cc2)nc1Oc1cccc(C(F)(F)F)n1 [Compound 127] | 10 | 20 | 10 | 30 | 10 | 20 | 20 | 30 | 40 | 60 | 20 | 20 | 0 | 10 | 10 | 20 | 10 | 0 | 0 | 0 | Plant response rating, Barnyardgrass [1, 14]: 0; Plant response rating, Barnyardgrass [1, 15]: 10; Plant response rating, Crabgrass, Large [2, 14]: 10; Plant response rating, Crabgrass, Large [2, 15]: 40; Plant response rating, Foxtail, Giant [3, 15]: 30; Plant response rating, Morningglory [4, 15]: 0; Plant response rating, Pigweed [5, 15]: 20; Plant response rating, Velvetleaf [6, 15]: 0; Plant response rating, Wheat [7, 14]: 0; Plant response rating, Wheat [7, 15]: 0; Plant response rating, Corn (corn (Zea mays); [14]): 0; Plant response rating, Corn (corn (Zea mays); [15]): 0
